Patent publication US10653139B2 (priority 2015, dated 2020)

Key:
[1] = test system: Aspergillus candidus; experiment: Antifungal in vitro assay, direct plating; assay type: cell-based; details: observed over 25 weeks
Method: (§1) The screening of S. aromaticum and M. pulegium essential oils and their major components, eugenol and pulegone, respectively, was carried out using a direct plating technique in order to evaluate their ability to inhibit the growth of Aspergillus candidus, A. niger, Penicillium islandicum and Fusarium culmorum.
(§2) In vitro assays. For the determination of direct plating effect of essential oil on the growth of the fungi on different concentrations 0.5, 1.0, 2.5 and 5.0 μL/mL of essential oil were put on the surface of a Petri dish with 20 mL of potato dextrose agar medium (PDA). These Petri dishes were inoculated with a 5 mm diameter disk of fungi grown on PDA medium for 8 days at 28° C. This disk was placed on the agar surface and the dish sealed immediately with parafilm to prevent loss of essential oil to the atmosphere and incubated at 28° C. Inhibition concentrations of essential oil were determined by periodic evaluation of fungi growth during 25 weeks. For each concentration, four replicate dishes were used.

[2] = test system: Aspergillus niger; experiment: Antifungal in vitro assay, direct plating; assay type: cell-based; details: observed over 25 weeks
Method: as §1, §2

[3] = test system: Fusarium culmorum; experiment: Antifungal in vitro assay, direct plating; assay type: cell-based; details: observed over 25 weeks
Method: as §1, §2

[4] = test system: Penicillium islandicum; experiment: Antifungal in vitro assay, direct plating; assay type: cell-based; details: observed over 25 weeks
Method: as §1, §2

[5] = test system: Aspergillus candidus; experiment: Antifungal in vitro assay, volatile (vapour) phase; assay type: cell-based; details: observed over 25 weeks
Method: (§3) Petri dishes were inoculated with a 5 mm diameter disk of fungi grown on PDA medium for 8 days at 28° C. This disk was placed on the agar surface and the dish sealed immediately with parafilm and incubated at 28° C. Inhibition concentrations of volatile phase of essential oils were determined by a periodic evaluation the fungi growth over 25 weeks. In the control, equal amounts of sterilized water was added to filter papers and placed onto the lid of Petri dishes. For each concentration, four replicate Petri dishes were used. The absence of growth was recorded during 25 weeks.

[6] = test system: Aspergillus niger; experiment: Antifungal in vitro assay, volatile (vapour) phase; assay type: cell-based; details: observed over 25 weeks
Method: as §3

[7] = test system: Fusarium culmorum; experiment: Antifungal in vitro assay, volatile (vapour) phase; assay type: cell-based; details: observed over 25 weeks
Method: as §3

[8] = test system: Penicillium islandicum; experiment: Antifungal in vitro assay, volatile (vapour) phase; assay type: cell-based; details: observed over 25 weeks
Method: as §3

[9] = test system: fungi growth on dried grains; experiment: Antifungal in vivo test on dried grains, vapour phase; details: dried grains on PDA, 25 weeks
Source text: 1.2 In vivo tests. The efficacy screening of the vapour of clove and pennyroyal essential oils (OE) and their main active components (MAC) eugenol, pulegone or their mixture was, carried out using a modified technique describe in Bluma, R., Landa, M. F., Etcheverry, M., 2009. Impact of volatile compounds generated by essential oils on Aspergillus section Flavi growth parameters and aflatoxin accumulation. J. Sci. Food Agric. 89 (9), 1473-1480. For the determination of volatile phase effect of essential oil on fungi growth different concentrations of essential oil were added to sterile filter papers (10 mm diameter, Whatman No. 1), namely, 0.5 μL/mL, 1.0 μL/mL, 2.5 μL/mL and 5.0 μL/mL and placed adherent to the inner surface of each Petri dishes lid (90 mm).
The grains were disinfected at surface as describe by Pitt & Hocking (Pitt, J. I., Hocking, A. D., 2009. Fungi and food spoilage. Springer, New York).
Ten dried grains were placed on Petri dishes with 20 mL of PDA medium with chloramphenicol (1%). These dishes were sealed immediately with parafilm and incubated at 28° C. Inhibition concentrations of volatile phase of essential oils were determined by periodic observation of fungi growth over 25 weeks. Control with no treated grains was also performed. For each concentration ten replicates were done.

[10] = test system: Acanthoscelides obtectus; experiment: Insecticidal activity test, vapour phase, bean; assay type: in vivo; details: 7.5 μL/mL
[11] = test system: Sitophilus zeamais; experiment: Insecticidal activity test, vapour phase, maize; assay type: in vivo; details: 18.8 μL/mL
Method: Maize grain with an average moisture content of 14±0.5% and ten unsexed adult insects aged from 1 to 4 days were used. The stock cultures of insects and the biological tests were carried out in a single incubator at 27° C. and 75±5% relative humidity.
Control with non-treated samples was also performed. Ten replicates per treatment and control were set up. All the replicates were kept in an incubator at 27° C. and 75%±5% relative humidity.
The progeny (F1) was evaluated monthly by common procedures after removing the parent adults. Insect mortality was assessed during five months (0.25, 1, 8, 134 and 149 days). The development index and the life cycle were also evaluated.

[12] = Container atmosphere composition (GC-PID); assay type: physicochemical; details: after 20 days of storage, one or two devices, 24 ml pulegone, 65 L container, maintained 4/5 months
Method: To study the evolution of the spatial and temporal pulegone concentration, two containers with 1 and 2 release devices were used, similar to those described in 4.1. In each container, 24 ml of pulegone were impregnated in cotton.
The spatial concentration profiles along time were outlined by collecting over time samples of 500 μL from the container atmosphere, through the 6 sampling ports (detailed presentation in FIG. 1) using a 500 μL gas-tight Hamilton syringe.
Nitrogen was used as carrier gas at a constant 2 mL flow rate.

[13] = test system: grain maize germination; experiment: In vitro germination assay of treated seeds; details: 3.5 months treatments, in vitro after 4 days (FIG. 2A)
Method: (§4) FIG. 2—Represents the effect of 3.5 months treatments on grain maize germination: (A) in vitro after 4 days and (B) in vivo 17 days after sowing (DAS).
In an embodiment, for the in vitro germination assay were used 10 seeds and 5 ml of sterile water per petri dish and the incubation temperature was ±25° C.

[14] = test system: plants produced from treated seeds; experiment: In vivo effects on plants from treated seeds (pots in greenhouse); design: species or system maize
Method: as §4
In an embodiment, the assay was performed in pots in a greenhouse with environmental monitoring (temperature, humidity and PAR intensity) and controlled irrigation. For each treatment, 6 pots with 2 plants each were used. […] No relevant differences in phenotypic (germination, chlorophyll and height) and physiological parameters (photosynthesis, stomatal conductance and transpiration (FIG. 3) were found.

C=CCc1ccc(O)c(OC)c1 [Eugenol, eugenol]
Time (weeks), period of storage without any fungal contamination ([1]; 0.5 μL/mL): 25 weeks | Time (weeks), period of storage without any fungal contamination ([1]; 1.0 μL/mL): 25 weeks | Time (weeks), period of storage without any fungal contamination ([1]; 2.5 μL/mL): 25 weeks | Time (weeks), period of storage without any fungal contamination ([1]; 5.0 μL/mL): 25 weeks | Time (weeks), period of storage without any fungal contamination ([2]; 0.5 μL/mL): 25 weeks | Time (weeks), period of storage without any fungal contamination ([2]; 1.0 μL/mL): 25 weeks | Time (weeks), period of storage without any fungal contamination ([2]; 2.5 μL/mL): 25 weeks | Time (weeks), period of storage without any fungal contamination ([2]; 5.0 μL/mL): 25 weeks | Time (weeks), period of storage without any fungal contamination ([3]; 0.5 μL/mL): 25 weeks | Time (weeks), period of storage without any fungal contamination ([3]; 1.0 μL/mL): 25 weeks | Time (weeks), period of storage without any fungal contamination ([3]; 2.5 μL/mL): 25 weeks | Time (weeks), period of storage without any fungal contamination ([3]; 5.0 μL/mL): 25 weeks | Time (weeks), period of storage without any fungal contamination ([4]; 0.5 μL/mL): 25 weeks | Time (weeks), period of storage without any fungal contamination ([4]; 1.0 μL/mL): 25 weeks | Time (weeks), period of storage without any fungal contamination ([4]; 2.5 μL/mL): 25 weeks | Time (weeks), period of storage without any fungal contamination ([4]; 5.0 μL/mL): 25 weeks | Time (weeks), period of storage without any fungal contamination ([5]; 0.5 μL/mL): 21 weeks | Time (weeks), period of storage without any fungal contamination ([5]; 1.0 μL/mL): 25 weeks | Time (weeks), period of storage without any fungal contamination ([5]; 2.5 μL/mL): 25 weeks | Time (weeks), period of storage without any fungal contamination ([5]; 5.0 μL/mL): 25 weeks | Time (weeks), period of storage without any fungal contamination ([6]; 0.5 μL/mL): 23 weeks | Time (weeks), period of storage without any fungal contamination ([6]; 1.0 μL/mL): 25 weeks | Time (weeks), period of storage without any fungal contamination ([6]; 2.5 μL/mL): 25 weeks | Time (weeks), period of storage without any fungal contamination ([6]; 5.0 μL/mL): 25 weeks | Time (weeks), period of storage without any fungal contamination ([7]; 0.5 μL/mL): 25 weeks | Time (weeks), period of storage without any fungal contamination ([7]; 1.0 μL/mL): 25 weeks | Time (weeks), period of storage without any fungal contamination ([7]; 2.5 μL/mL): 25 weeks | Time (weeks), period of storage without any fungal contamination ([7]; 5.0 μL/mL): 25 weeks | Time (weeks), period of storage without any fungal contamination ([8]; 0.5 μL/mL): 25 weeks | Time (weeks), period of storage without any fungal contamination ([8]; 1.0 μL/mL): 25 weeks | Time (weeks), period of storage without any fungal contamination ([8]; 2.5 μL/mL): 25 weeks | Time (weeks), period of storage without any fungal contamination ([8]; 5.0 μL/mL): 25 weeks | Time (weeks), period of storage without any fungal contamination, in vivo ([9]; 0.5 μL/mL): 2 weeks | Time (weeks), period of storage without any fungal contamination, in vivo ([9]; 2.5 μL/mL): 25 weeks | Time (weeks), period of storage without any fungal contamination, in vivo ([9]; 5.0 μL/mL): 25 weeks | Insect Mortality (%) ([10]; 0.25 days): 0% | Insect Mortality (%) ([10]; 1 day (control 29)): 70% | Insect Mortality (%) ([10]; 8 days (control 100)): 100% | Insect Mortality (%) ([10]; 134 days (control 100)): 100% | Insect Mortality (%) ([10]; 149 days (control 100)): 100%

CC(C)=C1CC[C@@H](C)CC1=O [Pulegone, pulegone]
Time (weeks), period of storage without any fungal contamination, in vivo ([9]; 0.5 μL/mL): 2 weeks | Time (weeks), period of storage without any fungal contamination, in vivo ([9]; 2.5 μL/mL): 20 weeks | Time (weeks), period of storage without any fungal contamination, in vivo ([9]; 5.0 μL/mL): 25 weeks | Insect Mortality (%) ([11]; 0.25 days): 46% | Insect Mortality (%) ([11]; 1 day): 100% | Insect Mortality (%) ([11]; 8 days): 100% | Insect Mortality (%) ([11]; 134 days): 100% | Insect Mortality (%) ([11]; 149 days): 100% | Insect Mortality (%) ([10]; 0.25 days): 0% | Insect Mortality (%) ([10]; 1 day (control 29)): 100% | Insect Mortality (%) ([10]; 8 days (control 100)): 100% | Insect Mortality (%) ([10]; 134 days (control 100)): 100% | Insect Mortality (%) ([10]; 149 days (control 100)): 100% | stabilized concentration level in the container atmosphere [12]: 10 % of the standard pulegone saturation value

C=C(C)[C@H]1CC=C(C)CC1 [Limonene, reference compound]
Insect Mortality (%) ([10]; 0.25 days): 0% | Insect Mortality (%) ([10]; 1 day (control 29)): 100% | Insect Mortality (%) ([10]; 8 days (control 100)): 100% | Insect Mortality (%) ([10]; 134 days (control 100)): 100% | Insect Mortality (%) ([10]; 149 days (control 100)): 100% | seed germination capacity, in vitro [13]: significant decrease | height of plants relatively to the control ([14]; plants from treated seeds (FIG. 4A)): small variation | decrease in total chlorophyll content related to the control ([14]; plants obtained from treated grains): 1.9% | germination, in vivo ([14]; pots in greenhouse, figure printed in brackets after 'really affected the germination'): 49.1%
